Experimental data: PubChem BioAssay AID2060895 (Molecular Pharmacology Branch, DTP, NCI, 2025)

Tested on: PDC 899932-113-R3-J6 complex spheroid viability
Test: Anticancer human tumor 899932-113-R3-J6-PDC patient-derived melanoma cell line growth inhibition [RAS]
Conditions: for IC50: curve of first compound; for viability, T/C: stronger effect = lower value
How it was run: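 Agents were tested in combination matrices in half-log decrements from a top concentration at or near clinical Cmax (10 microM if undetermined). Targets were multi-cell spheroids of tumour lines plus HUVEC and MSC stromal cells.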

[1] = second compound 0.00316 µM, first compound 0.00316 µM
[2] = second compound 0.00316 µM, first compound 0.01 µM
[3] = second compound 0.00316 µM, first compound 0.0316 µM
[4] = second compound 0.00316 µM, first compound 0.1 µM
[5] = second compound 0.00316 µM, first compound 0.316 µM
[6] = second compound 0.00316 µM, first compound 1 µM
[7] = second compound 0.01 µM, first compound 0.00316 µM
[8] = second compound 0.01 µM, first compound 0.01 µM
[9] = second compound 0.01 µM, first compound 0.0316 µM
[10] = second compound 0.01 µM, first compound 0.1 µM
[11] = second compound 0.01 µM, first compound 0.316 µM
[12] = second compound 0.01 µM, first compound 1 µM
[13] = second compound 0.0316 µM, first compound 0.00316 µM
[14] = second compound 0.0316 µM, first compound 0.01 µM
[15] = second compound 0.0316 µM, first compound 0.0316 µM
[16] = second compound 0.0316 µM, first compound 0.1 µM
[17] = second compound 0.0316 µM, first compound 0.316 µM
[18] = second compound 0.0316 µM, first compound 1 µM
[19] = second compound 0.1 µM, first compound 0.00316 µM
[20] = second compound 0.1 µM, first compound 0.01 µM
[21] = second compound 0.1 µM, first compound 0.0316 µM
[22] = second compound 0.1 µM, first compound 0.1 µM
[23] = second compound 0.1 µM, first compound 0.316 µM
[24] = second compound 0.1 µM, first compound 1 µM
[25] = second compound 0.316 µM, first compound 0.00316 µM
[26] = second compound 0.316 µM, first compound 0.01 µM
[27] = second compound 0.316 µM, first compound 0.0316 µM
[28] = second compound 0.316 µM, first compound 0.1 µM
[29] = second compound 0.316 µM, first compound 0.316 µM
[30] = second compound 0.316 µM, first compound 1 µM
[31] = second compound 1 µM, first compound 0.00316 µM
[32] = second compound 1 µM, first compound 0.01 µM
[33] = second compound 1 µM, first compound 0.0316 µM
[34] = second compound 1 µM, first compound 0.1 µM
[35] = second compound 1 µM, first compound 0.316 µM
[36] = second compound 1 µM, first compound 1 µM
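Throughout, for viability, T/C: spheroids exposed to agents for seven days before readout; 100% = DMSO vehicle control wells.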

For `C=CC(=O)Nc1cc(Nc2nccc(-c3cn(C)c4ccccc34)n2)c(OC)cc1N(C)CCN(C)C` + C=CC(=O)N1CCN(c2nc(OCC3CCCN3C)nc3c(F)c(-c4nc(N)cc(C)c4C(F)(F)F)c(Cl)cc23)C(C)C1, the IC50 (second compound 0.00316 µM) was > 1000 nM, the IC50 (second compound 0.01 µM) was > 1000 nM and the IC50 (second compound 0.0316 µM) was > 1000 nM. The IC50 (second compound 0.1 µM) was > 1000 nM, the IC50 (second compound 0.316 µM) was > 1000 nM and the IC50 (second compound 1 µM) was > 1000 nM. It also gave a viability, T/C [1] of 103%, a viability, T/C [2] of 93.5% and a viability, T/C [3] of 101%. For the same compound, the viability, T/C [4] was 99.1%, the viability, T/C [5] was 101% and the viability, T/C [6] was 82.8%. The viability, T/C [7] was 98.9%, the viability, T/C [8] was 99.4% and the viability, T/C [9] was 98.7%. The viability, T/C [10] was 101%, the viability, T/C [11] was 101% and the viability, T/C [12] was 92.2%. It also gave a viability, T/C [13] of 106%, a viability, T/C [14] of 101% and a viability, T/C [15] of 92.9%. It also gave a viability, T/C [16] of 107%, a viability, T/C [17] of 107% and a viability, T/C [18] of 82%. It also gave a viability, T/C [19] of 110%, a viability, T/C [20] of 95% and a viability, T/C [21] of 112%. For the same compound, the viability, T/C [22] was 97.7%, the viability, T/C [23] was 96.4% and the viability, T/C [24] was 99.6%. The viability, T/C [25] was 112%, the viability, T/C [26] was 103% and the viability, T/C [27] was 101%. The viability, T/C [28] was 107%, the viability, T/C [29] was 102% and the viability, T/C [30] was 89.1%. It also gave a viability, T/C [31] of 98.4%, a viability, T/C [32] of 97.2% and a viability, T/C [33] of 91.8%. It also gave a viability, T/C [34] of 94.5%, a viability, T/C [35] of 105% and a viability, T/C [36] of 78.8%.

Compound `O=C(c1ccc(F)c(F)c1Nc1ccc(I)cc1F)N1CC(O)([C@@H]2CCCCN2)C1` + C=CC(=O)N1CCN(c2nc(OCC3CCCN3C)nc3c(F)c(-c4nc(N)cc(C)c4C(F)(F)F)c(Cl)cc23)C(C)C1 has an IC50 (second compound 0.00316 µM) of 5.71 nM, an IC50 (second compound 0.01 µM) of 6.26 nM and an IC50 (second compound 0.0316 µM) of 6.75 nM. It also gave an IC50 (second compound 0.1 µM) of 8.47 nM, an IC50 (second compound 0.316 µM) of 7.95 nM and an IC50 (second compound 1 µM) of 8.43 nM. For the same compound, the viability, T/C [1] was 71.1%, the viability, T/C [2] was 30% and the viability, T/C [3] was 6.25%. It also gave a viability, T/C [4] of 3.24%, a viability, T/C [5] of 1.5% and a viability, T/C [6] of 0.84%. For the same compound, the viability, T/C [7] was 74.8%, the viability, T/C [8] was 33% and the viability, T/C [9] was 5.84%. The viability, T/C [10] was 2.5%, the viability, T/C [11] was 1.9% and the viability, T/C [12] was 0.68%. For the same compound, the viability, T/C [13] was 81.8%, the viability, T/C [14] was 33.5% and the viability, T/C [15] was 7.48%. For the same compound, the viability, T/C [16] was 2.48%, the viability, T/C [17] was 1.88% and the viability, T/C [18] was 0.72%. It also gave a viability, T/C [19] of 73.9%, a viability, T/C [20] of 46% and a viability, T/C [21] of 7.56%. The viability, T/C [22] was 2.66%, the viability, T/C [23] was 1.89% and the viability, T/C [24] was 1.02%. The viability, T/C [25] was 74.5%, the viability, T/C [26] was 43.9% and the viability, T/C [27] was 9.69%. For the same compound, the viability, T/C [28] was 2.51%, the viability, T/C [29] was 1.92% and the viability, T/C [30] was 0.96%. It also gave a viability, T/C [31] of 72.8%, a viability, T/C [32] of 46% and a viability, T/C [33] of 7.46%. It also gave a viability, T/C [34] of 3.39%, a viability, T/C [35] of 1.9% and a viability, T/C [36] of 1.15%.
